Experiment [1] relates to HepG2. Kind of experiment: Anti-hepatoma activity against human HepG2 cells assessed as cell growth inhibition by MTT assay. It is filed as functional, cell-based. For orientation: Formazan colour is commonly taken as a measure of viable cells.
In experiment [2] the test system is Hep 3B2. Kind of experiment: Anti-hepatoma activity against human Hep3B cells assessed as cell growth inhibition by MTT assay. It is filed as functional, cell-based.
In experiment [3] the test system is HepG2. Kind of experiment: Induction of autophagy in human HepG2 cells by MDC staining based flow cytometry analysis (Rvb =4.46%). It is filed as functional.
Experiment [4] has as its system Hep 3B2. Kind of experiment: Induction of autophagy in human Hep3B cells by MDC staining based flow cytometry analysis (Rvb =3.52%). It is filed as functional.

Structures are written as SMILES.

What is called IC50 is the point on the concentration scale where inhibition reaches its midpoint. Turning to `C/C=C(\C)C(=O)O[C@H]1CC2=C[C@@H](C/C(C)=C/[C@H]3OC(=O)C(CO)=C13)OC2=O`, the IC50 in the experiment with HepG2 [1] and with Hep 3B2 [2] was above 20 µM throughout.
On to `C=C1C(=O)O[C@H]2CC3=C[C@@H](C[C@@](C)(O)/C=C/[C@H]12)OC3=O`, for which the 50% inhibitory concentration (IC50) in the experiment on HepG2 [1] and with Hep 3B2 [2] was above 20 µM each time.
As for `C=C(C)C(=O)O[C@H]1CC2=C[C@@H](C[C@@](C)(O)/C=C/[C@@H]1C(=C)C(=O)OC)OC2=O`, the IC50 with HepG2 [1] and in the experiment on Hep 3B2 [2] was above 20 µM each time.
In the case of `C=C(C)C(=O)O[C@H]1CC2=C[C@H](CC(=C)[C@@H](O)[C@H]3OC(=O)C(=C)[C@@H]31)OC2=O`, the IC50 in the experiment with HepG2 [1] was determined as 8.59 µM; in the experiment on Hep 3B2 [2], 8.79 µM.
For `C=C1C(=O)O[C@H]2[C@H]1[C@@H](OC(=O)/C(C)=C\C)CC1=C[C@H](CC(=C)[C@H]2O)OC1=O`, the IC50 in the experiment with HepG2 [1] was 8.35 µM; with Hep 3B2 [2], 8.16 µM.
The matching figures for `C=C(C)C(=O)OCC1=C2[C@@H](O)CC3=C[C@@H](C/C(C)=C/[C@H]2OC1=O)OC3=O`: above 20 µM and above 20 µM.
The matching figures for `C=C(C)C(=O)O[C@H]1CC2=C[C@H](C[C@@]3(C)O[C@H]3[C@H]3OC(=O)C(=C)[C@@H]31)OC2=O`: 2.55 µM and 4.26 µM.
The corresponding values for `COC[C@@H]1C(=O)O[C@H]2[C@H]1[C@@H](O)CC1=C[C@H](C[C@@]3(C)O[C@@H]23)OC1=O` are above 20 µM and above 20 µM.
Regarding `C=C1C(=O)O[C@H]2[C@H]1[C@@H](OC(=O)/C(C)=C\C)CC1=C[C@H](C[C@@]3(C)O[C@@H]23)OC1=O`, the results for the IC50 with HepG2 [1] and in the experiment on Hep 3B2 [2] were 2.97 µM and 7.14 µM, respectively.
The corresponding values for `C/C=C(/C)C(=O)O[C@H]1CC2=C[C@@H](C/C(C)=C/[C@H]3OC(=O)C(CO)=C13)OC2=O` are above 20 µM and above 20 µM.
The matching figures for `C=C(C)C(=O)O[C@H]1CC2=C[C@H](C/C(C)=C/[C@H]3OC(=O)[C@@H](C)C13)OC2=O` (some centres undefined): above 20 µM and above 20 µM.
The matching figures for `C=C1C(=O)O[C@@H]2/C=C(\C)C[C@H]3C=C(C[C@H](OC(=O)C(C)C)[C@@H]12)C(=O)O3`: 10.6 µM and 8.63 µM.
In the case of `C=C1C(=O)O[C@H]2[C@H]1[C@@H](OC(=O)/C(C)=C\C)CC1=C[C@@H](C[C@@]3(C)O[C@@H]23)OC1=O`, the IC50 in the experiment with HepG2 [1] is 5.99 µM; with Hep 3B2 [2], 3.74 µM.
Consider `CNC(=O)c1cc(Oc2ccc(NC(=O)Nc3ccc(Cl)c(C(F)(F)F)c3)cc2)ccn1` [SORAFENIB], for which the values for the IC50 with HepG2 [1] and with Hep 3B2 [2] were 9.75 µM and 5.2 µM, respectively. The Activity in the experiment on HepG2 [3] turned out to be 4.1%; in the experiment with Hep 3B2 [4], 7.29%.
Regarding `C=C(C(=O)OC)[C@H]1/C=C/[C@](C)(O)C[C@@H]2C=C(C[C@@H]1OC(=O)/C(C)=C\C)C(=O)O2`, the IC50 in the experiment with HepG2 [1] and in the experiment on Hep 3B2 [2] was above 20 µM each time.
For `C[C@@H]1C(=O)O[C@H]2CC3=C[C@@H](C[C@@](C)(O)/C=C/[C@@H]21)OC3=O`, the IC50 with HepG2 [1] and in the experiment on Hep 3B2 [2] was above 20 µM throughout.
